Measured values reported in patent US6676932B2, “Ultraviolet absorbent, photostabilizer, ultraviolet ray-absorbing composition, photostabilized composition and external preparation for skin” (Shiseido Co., Ltd., priority 2001, dated 2004).

Experiments:
[1] = Dye stabilization effect under daylight exposure (Test Examples 6-91); format: physicochemical; design: key to Δ E: color difference ΔE in Lab vs. color before daylight exposure; key to Appearance (visual determination): ◯: no change; Δ: almost no change; x: change; conditions: photostabilizer 0.05 wt %, daylight exposure (80 MJ)
How it was run: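 Test samples exposed to daylight to 80 MJ; appearance judged visually. Colour measured by spectrophotometer in Lab coordinates, with ΔE calculated relative to pre-exposure values (L1, a1, b1).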

[2] = Photostability test of aqueous solutions under daylight (Test Example 4); format: physicochemical; conditions: aqueous solution, daylight for 2 weeks (80 MJ); for Change of area under ultraviolet spectrum: 290 nm to 400 nm
Experimental: Aqueous solutions of the pyridazine derivative of the invention were exposed to daylight for 2 weeks (at a daylight exposure of 80 MJ). Subsequently, the remaining ratio and the change of the appearance were examined to measure the ultraviolet spectra with a spectrophotometer (solvent: water; concentration of 10 ppm and optical path length of 1 cm). The area under ultraviolet spectra curve from 290 nm to 400 nm were determined by integration to compare the area with the area before daylight exposure.
The remaining ratio and the change of the area under the ultraviolet spectrum were determined on the basis of the following standards.
⊚: 95% or more of those before daylight exposure.
◯: 90% or more to less than 95% of those before daylight exposure.
Δ: 70% or more to less than 90% of those before daylight exposure.
x: less than 70% of those before daylight exposure.

[3] = dye Blue 1 (Brilliant Blue FCF) 0.0001 wt %
[4] = dye Green 3 (Fast Green FCF) 0.001 wt %
[5] = dye Red 227 (Acid Fuchsine D) 0.0001 wt %
[6] = dye Yellow 5 (Sunset Yellow FCF) 0.001 wt %
[7] = dyes Red 106 (Acid red) 0.00001 + Yellow 203 (Quinoline Yellow WS) 0.0001 wt %
[8] = dyes Red 213 (Rhodamine B) 0.00001 + Blue 1 (Brilliant Blue FCF) 0.00001 wt %
[9] = dyes Red 401 (Violanin R) 0.0001 + Blue 1 (Brilliant Blue FCF) 0.00001 wt %
[10] = dyes Red 227 (Acid Fuchsine D) 0.0001 + Yellow 5 (Sunset Yellow FCF) 0.0001 wt %

Row | Compound | Appearance (visual determination) [1, 3] | Δ E [1, 3] | Appearance (visual determination) [1, 4] | Δ E [1, 4] | Appearance (visual determination) [1, 5] | Δ E [1, 5] | Appearance (visual determination) [1, 6] | Δ E [1, 6] | Appearance (visual determination) [1, 7] | Δ E [1, 7] | Appearance (visual determination) [1, 8] | Δ E [1, 8] | Appearance (visual determination) [1, 9] | Δ E [1, 9] | Remaining ratio [2] | Change of area under ultraviolet spectrum [2] | Appearance (visual determination) [1, 10] | Δ E [1, 10]
1 | Oc1cc(N2CCOCC2)cnn1 [3-Hydroxy-5-morpholinopyridazine, 3-hydroxy-5-morpholinopyridazine] | ◯ | 1.31 | ◯ | 0.48 | ◯ | 0.52 | ◯ | 0.52 | ◯ | 0.85 | ◯ | 1.08 | ◯ | 0.44 | ⊚ (95% or more of those before daylight exposure) | ⊚ (95% or more of those before daylight exposure) | – | –
2 | Oc1nncc(N2CCCCC2)c1N1CCCCC1 [4,5-Dipiperidino-3-hydroxypyridazine] | ◯ | 1.22 | ◯ | 0.45 | ◯ | 0.53 | ◯ | 0.55 | – | – | ◯ | 1.11 | ◯ | 0.38 | ⊚ (95% or more of those before daylight exposure) | ⊚ (95% or more of those before daylight exposure) | ◯ | 0.63
